Test results reported in US20190127805A1, “GENE SIGNATURES FOR CANCER DETECTION AND TREATMENT” (ALMAC DIAGNOSTICS LIMITED, priority 2016, published 2019).
Like-named read-outs stand apart in the source and are kept apart here.

Assays:
ovarian cancer [1] = settings: cited from earlier work
[2] = test system: platinum resistant epithelial ovarian cancer; settings: cited from earlier work
[3] = test system: OVCAR3 isogenic cell lines co-cultured with ECFCs; assay: In-vivo Matrigel plug angiogenesis assay (micro-vessel density); parameters: species or system Athymic nude mice; settings: 5 mg/kg IP; OVCAR3 cisplatin-resistant vs cisplatin-naïve cells, p-value 0.0024 (FIG. 44)
Protocol: All animal experiments were performed in conformity to UK Home Office Regulations (PPL2729) and with authorization from Queen's University Belfast Animal Welfare and Ethical Review Body (AWERB). Eight week-old male Athymic nude mice (Harlan Laboratories) were used. ECFC were inoculated at a high density of 2.45×106 and co-cultured with GFP-labelled OVCAR3 WT or GFP-labelled OVCAR3-CP at a density of 1.4×106. The GFP-labelled OVCAR3 WT and GFP-labelled OVCAR3-CP were seeded alone at a density of 1.4×106. Each condition was diluted in 10 μL of phenol red-free DMEM and re-suspended in 90 μL of growth factor-reduced Matrigel (Corning) and injected subcutaneously. After 8 days, mice were sacrificed under isoflurane anaesthesia using 31 gauge needless intraperitoneal (IP) administration of sodium pentobarbital at 200 mg/kg, and implants were removed and fixed in 4% formaldehyde overnight. Fixed Matrigel implants were then embedded in paraffin and 10 μm sections were prepared for staining. For 5 mg/Kg bevacizumab was administered IP once weekly for 14 days. Treatment was commenced on day 3. Mice were sacrificed after a 14-day treatment period as previously described.
IHC and immunofluorescence studies were conducted as previously describe. […] CD31 and αSMA stained vessels were then counted per high power field (200×) in three separate fields of three independent tumors from each group. […]

ovarian cancer [4] = settings: cited from earlier work; remark: listed apart in the source
[5] = test system: platinum sensitive recurrent ovarian cancer; settings: cited from earlier work

## bevacizumab: recombinant humanised monoclonal antibody that binds to vascular endothelial growth factor A (VEGF-A)
Ovarian cancer [1]; standard therapy plus bevacizumab (standard therapy alone 20.3 months)
  progression free survival (PFS): 21.8 months
Ovarian cancer [1]; vs standard therapy, 95% CI 0.70 to 0.94, P=0.004
  hazard ratio (HR) for PFS: 0.81
[2]; bevacizumab and chemotherapy
  objective response rate (ORR): 30.9%
[2]; chemotherapy and bevacizumab arm (chemotherapy alone 13.3 months)
  overall survival: 16.6 months
[2]; patients treated with bevacizumab and paclitaxel
  PFS: 9.6 months
[2]; single agent chemotherapy and bevacizumab (chemotherapy alone 3.4 months)
  Progression free survival: 6.7 months
[2]; vs chemotherapy alone, 95% CI 0.32-0.53, p<0.001
  hazard ratio for progression free survival: 0.42
[2]; vs chemotherapy alone, 95% CI 0.69-1.14, not statistically significant
  HR for overall survival: 0.89
[3]
  MVD (micro-vessel density): less MVD
Ovarian cancer [4]; bevacizumab cycle 2-6, 95% CI 0.795 to 1.040, P=0.16
  HR for PFS: 0.908
Ovarian cancer [4]; bevacizumab plus chemotherapy cycle 2-22, 95% CI 0.625 to 0.824, P<0.001
  HR for PFS: 0.717
Ovarian cancer [4]; bevacizumab plus standard chemotherapy cycle 2-22 (control 10.3 months)
  PFS: 14.1 months
Ovarian cancer [4]; bevacizumab with standard chemotherapy cycle 2-6 (control 10.3 months)
  PFS: 11.2 months
[5]; bevacizumab + gemcitabine and carboplatin (placebo+GC 8.4 months)
  Median progression free survival: 12.4 months
[5]; vs placebo+GC, 95% CI 0.388-0.605, p<0.0001
  HR for progression free survival: 0.484
